Earlier results, collected in patent US20240016731A1, “Drug Implants Containing Apalutamide and Methods of Use Thereof” (The Regents of the University of California, priority 2020, published 2024).

Conditions: systemic (e.g., oral) administration, assuming 240 mg daily dose

SMILES: CNC(=O)c1ccc(N2C(=S)N(c3cnc(C#N)c(C(F)(F)F)c3)C(=O)C23CCC3)cc1F [apalutamide, Apalutamide]
- steady state blood plasma concentration of apalutamide: about 6 μg/ml
